# Assay results published in ChEMBL document CHEMBL5247574, “Recent Progress on Bile Acid Receptor Modulators for Treatment of Metabolic Diseases” (J Med Chem, 2016).
# Tests used:
# Bile acid receptor [1] = target: T1, Bile acid receptor (Homo sapiens, UniProt Q96RI1); experiment: Agonist activity at human FXR expressed in Escherichia coli BL21 (DE3) assessed as effect on europium labeled SRC-1 peptide recruitment by HTRF assay
# T1 sequence (Q96RI1 whole entry): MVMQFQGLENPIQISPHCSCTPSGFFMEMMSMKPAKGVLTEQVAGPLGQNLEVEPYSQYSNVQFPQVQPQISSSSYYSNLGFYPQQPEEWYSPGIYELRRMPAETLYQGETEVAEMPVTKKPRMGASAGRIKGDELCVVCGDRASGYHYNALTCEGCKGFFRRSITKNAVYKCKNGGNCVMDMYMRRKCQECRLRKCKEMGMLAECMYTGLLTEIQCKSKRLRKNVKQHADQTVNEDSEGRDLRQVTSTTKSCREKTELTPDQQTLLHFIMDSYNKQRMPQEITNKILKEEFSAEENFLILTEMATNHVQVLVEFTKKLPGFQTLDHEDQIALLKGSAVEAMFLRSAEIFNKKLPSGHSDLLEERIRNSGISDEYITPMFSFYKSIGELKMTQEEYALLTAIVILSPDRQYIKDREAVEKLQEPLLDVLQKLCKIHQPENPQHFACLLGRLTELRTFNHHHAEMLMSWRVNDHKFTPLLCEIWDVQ
# Bile acid receptor [2] = target: T1, Bile acid receptor; experiment: Agonist activity at GAL4-fused N-terminal GST tagged human FXR LBD expressed in human HEK293 cells by one hybrid reporter assay; format: cell-based
# [3] = Toxicity in DIO mouse assessed as reduction in total cholesterol level at 30 mg/kg per day administered for 4 weeks; format: organism-based; design: scale not given: the % may be the effect or the level left; conditions: in vivo, 672 h
# [4] = Toxicity in DIO mouse assessed as plasma triglycerides at 30 mg/kg per day administered for 4 weeks; format: organism-based; conditions: in vivo, 672 h
# [5] = target: T2, G-protein coupled bile acid receptor 1 (Homo sapiens, UniProt Q8TDU6); experiment: Agonist activity at TGR5 in human HEK293 cells incubated for 30 mins; format: cell-based
# T2 sequence (Q8TDU6 whole entry): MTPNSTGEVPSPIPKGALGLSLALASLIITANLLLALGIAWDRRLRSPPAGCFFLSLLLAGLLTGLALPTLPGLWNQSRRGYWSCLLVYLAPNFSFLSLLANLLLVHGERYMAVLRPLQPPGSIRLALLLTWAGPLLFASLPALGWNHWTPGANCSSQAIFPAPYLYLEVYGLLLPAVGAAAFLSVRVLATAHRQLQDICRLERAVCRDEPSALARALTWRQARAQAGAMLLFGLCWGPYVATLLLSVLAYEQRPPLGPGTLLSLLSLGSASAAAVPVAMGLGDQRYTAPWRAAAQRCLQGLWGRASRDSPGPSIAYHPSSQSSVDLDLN
# Bile acid receptor [6] = target: T1, Bile acid receptor; experiment: Antagonist activity at FXR (unknown origin) by HTFR assay
# Bile acid receptor [7] = target: T1, Bile acid receptor; experiment: Antagonist activity at FXR in human HepG2 cells; format: cell-based
# [8] = In vivo agonist activity at TGR5 in streptozotocin-induced diabetic hamster model assessed as decrease in LDL level at 20 mg/kg, po bid administered for 2 weeks by oral glucose tolerance test relative to control; design: scale not given: the % may be the effect or the level left; conditions: Cricetulus griseus
# [9] = In vivo agonist activity at TGR5 in streptozotocin-induced diabetic hamster model assessed as increase in oxygen consumption at 20 mg/kg, po bid administered for 2 weeks by oral glucose tolerance test relative to control; format: functional, Cricetulus griseus
# [10] = target: T3, G-protein coupled bile acid receptor 1 (Homo sapiens) (UniProt Q8TDU6); experiment: Agonist activity at human TGR5 transfected in human NCI-H716 cells assessed as fold increase in GLP-1 secretion; format: cell-based; conditions: filed as agonist
# T3 sequence (whole entry): T2 sequence (Q8TDU6 whole entry)
# [11] = In vivo agonist activity at TGR5 in streptozotocin-induced diabetic hamster model assessed as increase in insulin secretion at 20 mg/kg, po bid administered for 2 weeks by oral glucose tolerance test relative to control; format: functional, Cricetulus griseus
# [12] = In vivo agonist activity at TGR5 in streptozotocin-induced diabetic hamster model assessed as reduction in body weight at 20 mg/kg, po bid administered for 2 weeks by oral glucose tolerance test relative to control; format: functional, Cricetulus griseus; design: scale not given: the % may be the effect or the level left
# [13] = In vivo agonist activity at TGR5 in streptozotocin-induced diabetic hamster model assessed as decrease in plasma triglyceride at 20 mg/kg, po bid administered for 2 weeks by oral glucose tolerance test relative to control; format: functional, Cricetulus griseus; design: scale not given: the % may be the effect or the level left
# [14] = In vivo agonist activity at TGR5 in streptozotocin-induced diabetic hamster model assessed as increase in HDL/LDL ratio at 20 mg/kg, po bid administered for 2 weeks by oral glucose tolerance test relative to control
# [15] = In vivo agonist activity at TGR5 in streptozotocin-induced diabetic hamster model assessed as increase in HDL level at 20 mg/kg, po bid administered for 2 weeks by oral glucose tolerance test relative to control; format: functional, Cricetulus griseus
# [16] = In vivo agonist activity at TGR5 in streptozotocin-induced diabetic hamster model assessed as reduction in glucose excursion at 38 mg/kg, po by oral glucose tolerance test relative to control; format: functional, Cricetulus griseus; design: scale not given: the % may be the effect or the level left
# [17] = In vivo agonist activity at TGR5 in streptozotocin-induced diabetic hamster model assessed as decrease in non-HDL level at 20 mg/kg, po bid administered for 2 weeks by oral glucose tolerance test relative to control; design: scale not given: the % may be the effect or the level left; conditions: Cricetulus griseus
# [18] = Permeability of compound by PAMPA assay; format: ADME
# Bile acid receptor [19] = target: T1, Bile acid receptor; experiment: Agonist activity at FXR (unknown origin) by FRET assay
# [20] = target: T2, G-protein coupled bile acid receptor 1; experiment: Agonist activity at TGR5 in human T-lymphocyte cells assessed as increase in cAMP production; format: cell-based
smiles,measurement,setting,value
CC(C)c1onc(-c2c(Cl)cccc2Cl)c1COc1ccc2c(ccn2Cc2ccc(-c3nnn[nH]3)cc2)c1,EC50,Bile acid receptor [1],< 100 nM
O=C(O)c1ccc(C2CC2c2ccc(OCc3c(-c4c(Cl)cccc4Cl)noc3C3CC3)cc2Cl)cc1 (stereo unspecified),EC50,Bile acid receptor [2],10 nM
same,Activity,[3],70%
same,Activity,[4],50%
COc1ccc(Cc2nnc(SCc3c(F)cccc3Cl)n2-c2ccc(F)cc2F)cc1OC,EC50,[5],< 100 nM
O=C(O)c1ccccc1-c1ccc(Cn2ccc(OCc3c(-c4ccccc4Cl)noc3-c3cccs3)n2)cc1,IC50,Bile acid receptor [6],10000 nM
same,IC50,Bile acid receptor [7],12200 nM
CN(C(=O)c1c(-c2ccc(F)cc2)nc2ncccn12)c1ccc(Cl)cc1,Activity,[8],14%
same,Activity,[9],7.9%
same,fold change (FC),[10],3.7
same,Activity,[11],80%
same,Activity,[12],5.2%
same,Activity,[13],43%
same,Activity,[14],24%
same,Activity,[15],7%
same,Activity,[16],39%
same,Activity,[17],24%
CC(C)n1nc(C(=O)O)cc1[C@H]1C[C@](O)(c2ccc(OCc3c(-c4c(Cl)cccc4Cl)noc3C3CC3)cc2Cl)C1,permeability,[18],46.1%
same,EC50,Bile acid receptor [2],10 nM
same,EC50,Bile acid receptor [19],< 25 nM
CS(=O)(=O)c1ccc(CC2CCC(c3c(C(=O)N4CCC(c5ccc(F)cc5)C4)cnn3-c3ccc(F)cc3)CC2)cc1 (stereo unspecified),EC50,[20],7 nM
